Laboratory results as given in article PMC9021956, “Screening and Identification of HBV Epitopes Restricted by Multiple Prevalent HLA-A Allotypes” (Frontiers in Immunology, 2022).
Residues, ends and D or L forms follow the SMILES beside them.

What was measured:
HLA-A1102 = biological target: T1, HLA-A1102 (Homo sapiens, UniProt P04439, A114D/D185E/E176A/E43K/F33Y/L180Q/S129P/T187R); assay: Peptide competitive binding assay, transfected HMy2.CIR cells, reference ATFQFK(FITC)VER
T1 construct: expressed in transfected cells; host or cells: HMy2.CIR
Outline: (§1)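 Affinity is expressed as IC50 for displacement of the FITC-labeled reference peptide from HLA-A on transfected HMy2.CIR cells. Cell-surface molecules were first emptied by brief acid treatment (pH 3.3) and then refolded with β2-m at 1 μg/mL in the presence of competitor.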

HLA-A0301 = biological target: T2, HLA-A0301 (Homo sapiens, UniProt P04439); assay: as above
T2 construct: expressed in transfected cells; host or cells: HMy2.CIR
Outline: as §1

HLA-A0201 = biological target: T3, HLA-A0201 (Homo sapiens, UniProt P04439, D140Y/D185E/D98H/E176V/E277Q/G131W/G231S/I119V/I121R/I166T/I218V/L300P/L318F/N151K/N90K/P208A/P217A/Q86G/Q94H/R138H/R169H/T345S); assay: cell-based; assay type: binding; details: for inhibition at 5 µM / inhibition at 15 µM: HLA-A0201 HMy2.CIR cells, 24 hours, flow cytometry; for inhibition at 5 µM: competitor peptide 5μM, read-out: 5μM Inhibition (%); for inhibition at 15 µM: competitor peptide 15μM, read-out: 15μM Inhibition (%)
T3 construct: expressed in transfected cells; host or cells: HMy2.CIR
Outline: as §1

HLA-A1101 = biological target: T4, HLA-A1101 (Homo sapiens, UniProt P04439, A114D/D185E/E176A/F33Y/L180Q/S129P/T187R); assay: cell-based; assay type: binding; details: for inhibition at 5 µM / inhibition at 15 µM: HLA-A1101 HMy2.CIR cells, 24 hours, flow cytometry; for inhibition at 5 µM: competitor peptide 5μM, read-out: 5μM Inhibition (%); for inhibition at 15 µM: competitor peptide 15μM, read-out: 15μM Inhibition (%)
T4 construct: expressed in transfected cells; host or cells: HMy2.CIR
Outline: as §1

[1] = test system: twelve prevalent HLA-A allotypes; assay: Peptide competitive binding assay, whole panel; parameters: species or system human; details: high = IC50<5μM
Experimental: A set of fluoresce-labeled reference peptides (positive-control peptide) were synthesized with a purity of >99% by Sangon Biotech and stored at 4°C, such as FLPSDK(FITC)FPSV for A0201, A0203 and A0206 ([30]), YVNVNK(FITC)GLK for A1101 and A3303 ([31]), EYLVSK(FITC)GVW for A2402 ([32]), ATFQFK(FITC)VER for A3101, A1102 and A0301 ([33]), KLPDDFK(FITC)GCV for A0207 ([34]), YLEPAK(FITC)AKY for A0101 ([30]), and ASRELK(FITC)VSY for A3001 (identified in house). Then the competitive peptide binding assay was performed as described with minor modifications ([30], [35]). Briefly, the HMy2.CIR cell lines expressing the indicated HLA-A molecule were washed with acid buffer (0.131M citric acid and 0.061M sodium phosphate Na2HPO4, PH3.3, 0.22 μm filtered) for 1 min, and immediately neutralized by IMDM medium containing 0.5% BSA. After washing, the cells were seeded into 96-well U culture plate (1×10^5 cells/100 μL/well) with β2-m (1 μg/mL). […] In parallel, no peptide control well (cells alone) and positive control well (cells with FITC-labeled reference peptide) were also performed.
The plate was centrifuged at 600 rpm for 5 min at room temperature (RT). Cells were washed twice with 100 μL cold 0.5% BSA-PBS. Finally, cells were resuspended with 150 μL PBS and analyzed with flow cytometry. Sample % is the percentage of FITC^+ cells in the experiment well, while the background % is the percentage of FITC^+ cells in the no peptide control well, and the max % is the percentage of FITC^+ cells in the positive control well. Competitive binding (%) = [1-(sample % - background %)/(max % – background %)] × 100%. […] Binding affinity of unlabeled peptide with the indicated HLA-A molecule is assessed by IC50.
Subsequently, the unlabeled epitope peptides of HBV competed with fluorescently labeled reference peptides in the binding with HLA-A molecules onto transfected cell lines for 24 hours. Here, twelve prevalent HLA-A allotypes were tested with totally 62 HBV epitope peptides validated in house.

HLA-A0207 = biological target: T5, HLA-A0207 (Homo sapiens, UniProt P04439, D140Y/D185E/D98H/E176V/E277Q/G131W/G231S/I119V/I121R/I166T/I218V/L300P/L318F/N151K/N90K/P208A/P217A/Q86G/Q94H/R138H/R169H/T345S/Y123C); assay: cell-based; assay type: binding; details: HLA-A0207 HMy2.CIR cells, 24 hours, flow cytometry
T5 construct: expressed in transfected cells; host or cells: HMy2.CIR
Outline: as §1

HLA-A3303 = biological target: T6, HLA-A3303 (Homo sapiens, UniProt P04439, A270S/D185E/E176V/E277Q/E87N/F33T/G231S/H175R/I121M/I218V/I322F/K168Q/L300P/L318F/M331R/P217A/Q86R/Q94H/R138Q/T323A/T345S/T97I/V358M); assay: cell-based; assay type: binding; details: for inhibition at 5 µM / inhibition at 15 µM: HLA-A3303 HMy2.CIR cells, 24 hours, flow cytometry; for inhibition at 5 µM: competitor peptide 5μM, read-out: 5μM Inhibition (%); for inhibition at 15 µM: competitor peptide 15μM, read-out: 15μM Inhibition (%)
T6 construct: expressed in transfected cells; host or cells: HMy2.CIR
Outline: as §1

HLA-A2402 = HLA-A2402 (Homo sapiens, UniProt P04439, D101N/D140Y/D185E/E176V/E190D/F33S/G103R/G107R/I119L/I121M/I306V/K335N/L105A/L180Q/L300P/N151K/N90K/Q86E/Q94H/R106L/R138H/R89G/T104I/T345S/V100E/W191G/Y123F); assay: cell-based; assay type: binding; details: for inhibition at 5 µM / inhibition at 15 µM: HLA-A2402 HMy2.CIR cells, 24 hours, flow cytometry; for inhibition at 5 µM: competitor peptide 5μM; for inhibition at 15 µM: competitor peptide 15μM
Outline: as §1

HLA-A0206 = biological target: T7, HLA-A0206 (Homo sapiens, UniProt P04439, D140Y/D185E/D98H/E176V/E277Q/F33Y/G131W/G231S/I119V/I121R/I166T/I218V/L300P/L318F/N151K/N90K/P208A/P217A/Q86G/Q94H/R138H/R169H/T345S); assay: cell-based; assay type: binding; details: HLA-A0206 HMy2.CIR cells, 24 hours, flow cytometry
T7 construct: expressed in transfected cells; host or cells: HMy2.CIR
Outline: as §1

[2] = competitor peptide 5μM, read-out: 5μM Inhibition (%)
[3] = competitor peptide 15μM, read-out: 15μM Inhibition (%)

Structure (SMILES) | IC50 (HLA-A0201) | inhibition at 5 µM (HLA-A0201) | inhibition at 15 µM (HLA-A0201) | inhibition at 5 µM (HLA-A1101) | inhibition at 15 µM (HLA-A1101) | number of HLA-A allotypes bound with high affinity [1] | inhibition at 5 µM (HLA-A3303) | inhibition at 15 µM (HLA-A3303) | inhibition at 5 µM (HLA-A2402) | inhibition at 15 µM (HLA-A2402) | other results
CC(C)C[C@H](NC(=O)[C@@H](NC(=O)[C@H](CCC(N)=O)NC(=O)[C@H](Cc1c[nH]cn1)NC(=O)[C@H](C)NC(=O)[C@H](CC(N)=O)NC(=O)[C@@H](NC(=O)[C@@H](N)[C@@H](C)O)C(C)C)C(C)C)C(=O)N1CCC[C@H]1C(=O)N[C@@H](CCCCN)C(=O)O [Epitope P48] (H-TVNAHQVLPK-OH; N-terminus and C-terminus assumed) | > 15 µM | 9.5% | 15% | 86% | 91% | two | – | – | – | – | inhibition at 5 µM (HLA-A1102; HLA-A1102 HMy2.CIR cells, competitor peptide 5μM, 24 hours, flow cytometry, read-out: 5μM Inhibition (%)): 25.5%; inhibition at 15 µM (HLA-A1102; HLA-A1102 HMy2.CIR cells, competitor peptide 15μM, 24 hours, flow cytometry, read-out: 15μM Inhibition (%)): 42.7%; IC50 (HLA-A1102; read-out: Affinity): > 15 µM; inhibition at 5 µM (HLA-A0301; HLA-A0301 HMy2.CIR cells, competitor peptide 5μM, 24 hours, flow cytometry, read-out: 5μM Inhibition (%)): 67.9%; inhibition at 15 µM (HLA-A0301; HLA-A0301 HMy2.CIR cells, competitor peptide 15μM, 24 hours, flow cytometry, read-out: 15μM Inhibition (%)): 73.9%; IC50 (HLA-A0301; read-out: Affinity): < 5 µM; IC50 (HLA-A1101): < 5 µM
CC[C@H](C)[C@H](NC(=O)CNC(=O)[C@H](CC(C)C)NC(=O)[C@H](CO)NC(=O)[C@H](CC(C)C)NC(=O)[C@H](CC(C)C)NC(=O)[C@@H](N)Cc1ccccc1)C(=O)N[C@@H](Cc1c[nH]cn1)C(=O)N[C@@H](CC(C)C)C(=O)O [Epitope P10] | – | 81.7% | 71.6% | 7.2% | 8% | two | 60.1% | 66.1% | 19% | 17% | inhibition at 5 µM (HLA-A0207; [2]): 27%; inhibition at 15 µM (HLA-A0207; [3]): 31%; inhibition at 5 µM (HLA-A0206; [2]): 21.5%; inhibition at 15 µM (HLA-A0206; [3]): 43.2%
CC(C)C[C@H](NC(=O)[C@@H](N)Cc1ccccc1)C(=O)N[C@@H](Cc1c[nH]c2ccccc12)C(=O)N[C@@H](CCC(=O)O)C(=O)N[C@@H](Cc1c[nH]c2ccccc12)C(=O)N[C@@H](C)C(=O)N[C@@H](CO)C(=O)N[C@H](C(=O)N[C@@H](CCCNC(=N)N)C(=O)O)C(C)C [Epitope P78] (H-FLWEWASVR-OH; N-terminus and C-terminus assumed) | < 5 µM | 79.7% | 97.3% | – | – | two | 72.1% | 89.6% | 1% | 9.1% | IC50 (HLA-A3303): < 5 µM; IC50 (HLA-A2402): > 15 µM
